Laboratory results reported in patent publication US6329378A, “Hydrazone, hydrazine and thiosemicarbazone derivatives as antifungal agents” (Anadys Pharmaceuticals, Inc., priority 2000, dated 2001).
Values after ≈ are worked out from the molar mass of the structure shown.

Key:
C. albicans [1] = test: MIC, broth microdilution (NCCLS M27-A), C. albicans; assay type: cell-based, Candida albicans; conditions: 48 hours, C. albicans ATCC 10231; for MIC C. albicans: 35° C.; for MIC: Candida albicans, ATCC10231, 35° C.
Description: (§1) Compounds of the invention were tested for antifungal susceptibility using broth microdilution assay established by the National Committee for Clinical Laboratory Standards, in NCCLS Document M27-A, which is hereby incorporated by reference. Minimum inhibitory concentrations (MICs) and minimum fungicidal concentrations (MFCs) were measured.
(§2) Yeasts (Saccharomyces cerevisiae and Candida albicans) are cultured on SDA plates in a 35° C. incubator. Strains on SDA plates are stored at 4° C. and used as working stock cultures.
(§3) Inoculum for susceptibility testing is prepared from fresh 24 hour cultures. 5-10 colonies are scraped from the plate and suspended in three milliliters of sterile 0.85% saline (8.5 g/liter NaCl). The cell density of the solution is determined by measuring the absorbance in a spectrophotometer (Shimadzu UV-1201S UV-VIS Spectrophotometer) set at 600 nm. An absorbance value between 0.1 and 0.4 is required for an accurate reading.
(§4) For Candida albicans strains ATCC 10231, 1.0 OD600 unit is approximately 10^7 cells per ml. For Saccharomyces cerevisiae strain CTY552, 1.0 OD600 unit is slightly less than 10^7 cells per ml. Cell suspensions are diluted with the appropriate medium (typically RPMI-1640) to OD600 =0.0003 for Candida and OD600 =0.0004 for Saccharomyces. The diluted suspension contains approximately 3×10^3 cells per ml (this is a 2×concentration inoculum). Two 100 μl aliquots of this dilution are spread on SDA plates and incubated at 35° C. for 1-2 days to determine the precise number of colony forming units. An acceptable range for the inoculum (2×) is 1-5×10^3 cfu/ml (100-500 for 100 μl). Following two-fold dilution of the inoculum with compound, the final concentration of cells will be 0.5-2.5×10^3 per ml. The inoculum is kept at 4° C. and used within a few hours.
(§5) Stock solutions and concentrations tested will vary from compound to compound. In general, though, stock solutions of 12.8 mg/ml in DMSO (Sigma D-8779) are prepared. This will allow for a 128 μg/ml starting test concentration containing 1% DMSO. Stock solutions are stored at -20° C. and dilutions for antifungal testing are freshly prepared before each assay.
(§6) Stock solutions of Amphotericin B and Itraconazole are prepared at 1.6 mg/ml in DMSO. Amphotericin B is sold as a powder that is approximately 80% Amphotericin B. Stock solutions are made accordingly (2.0 mg of powder for a 1 ml solution of 1.6 mg/ml Amphotericin B).
(§7) Both of these (control and test compounds) represent 1:50 dilutions. For an assay with three fungal strains, 40 microliters of a stock solution are diluted to 2.0 ml with room temperature medium.
(§8) Antifungal susceptibility tests are setup in polystyrene, 96-well, flat bottom plates (Costar 9017). To every well in columns 2-12 is added 100 microliters of media. An electronic multichannel (12) pipettor with no tip on channel one is used. To every well in column one is added 200 microliters of diluted compound (32 μg/ml for Amphotericin B and Itraconazole controls, 256 μg/ml for test compounds, 100-fold dilution for natural product extracts). A manual multichannel (8) pipettor is then used to set up a series of 2-fold dilutions. 100 microliters is removed from each well of column one and mixed with 100 microliters in column 2. This is done successively (column two to column three etc.) to produce a set of 11 serial dilutions (column 12 is a drug free control).
(§9) To every well in two rows, 100 μl of inoculum (2×) of a single strain is added. To the final two rows on the plate (G & H), only media is added. Addition of inoculum is best accomplished using an electronic multichannel (12) pipettor. This setup (see below) creates a starting cell density of […] (100-500 per well) and drug concentration ranging from 16 μg/ml to […] for controls (Amphotericin B and Itraconazole), 128 μg/ml to 0.125 μg/ml for pure test compounds, and 200 to 204, 800-fold dilutions for natural product extracts.

C. albicans [2] = test: Minimum fungicidal concentration (MFC), C. albicans; assay type: cell-based, Candida albicans; conditions: viability on SDA plate, 35° C.; for MFC: Candida albicans
Description: as §1, §2, §3, §4, §5, §6
(§10) Stock solutions of control compounds (1.6 mg/ml, Amphotericin B or Itraconazole) are initially diluted in medium to a concentration of 32 μg/ml while stock solutions of test compounds (typically 12.8 mg/ml) are diluted to 256 μg/ml. Both of these (control and test compounds) represent 1:50 dilutions. For an assay with three fungal strains, 40 microliters of a stock solution are diluted to 2.0 ml with room temperature medium.
as §8
(§11) To every well in two rows, 100 μl of inoculum (2×) of a single strain is added. To the final two rows on the plate (G & H), only media is added. Addition of inoculum is best accomplished using an electronic multichannel (12) pipettor. […]

S. serevisiae = test: MIC, broth microdilution (NCCLS M27-A), S. cerevisiae; assay type: cell-based, Saccharomyces cerevisiae; conditions: for MIC S. serevisiae: broth microdilution, 35° C., 48 hours, S. cerevisiae CTY552; for MIC: Saccharomyces cerevisiae, 48 h, read-out: MIC S. serevisiae
Description: as §1, §2, §3, §4, §5, §6, §10, §8, §11

A. Nidulans = test: MIC, broth microdilution (NCCLS M27-A), A. nidulans; assay type: cell-based; conditions: 35° C., 48 hours; for MIC: Aspergillus nidulans
Description: as §1
Filamentous fungi (Aspergillus spp.) is cultured on PDA plates in a 35° C. incubator. Inoculum of Aspergillus for susceptibility testing is prepared from plates incubated at 35° C. for 5 days. Colonies are covered with 5 ml of sterile 0.85% saline (8.5 g/liter NaCl) and gently rocked for 10-15 minutes. To dislodge the conidia, an automatic pipettor is used to gently wash over the colonies. The saline solution is removed from the plate and the heavy particles are allowed to settle for 3-5 minutes. The upper suspension is removed and vortexed for 15 sec. The turbidity of the solution is determined by measuring the absorbance in a spectrophotometer (Shimadzu UV-1201S UV-VIS Spectrophotometer) set at 600 nm. An absorbance value between 0.1 and 0.4 is required for an accurate reading.
The cell suspension is diluted with the appropriate medium (typically RPMI-1640) to OD600 =0.0004. The final suspension should contain approximately 3×10^3 cfu per ml (this is a 2×concentrationinoculum). Two 100 μl aliquots of this dilution are spread on SDA plates and incubated at 35° C. for 1-2 days to determine the precise number of colony forming units. An acceptable range for the inoculum (2×) is 1-5×10^3 cfu/ml (100-500 for 100 μl). Following two-fold dilution of the inoculum with compound, the final concentration of cells will be 0.5-2.5×10^3 per ml. The inoculum is kept at 4° C. and used within a few hours.
as §5, §6, §7, §8, §9

| Molecule | MIC C. albicans (C. albicans [1]) [µg/mL] | MFC C. albicans (C. albicans [2]) [µg/mL] | MIC S. serevisiae (S. serevisiae) [µg/mL] | MIC A. Nidulans (A. Nidulans) [µg/mL] | MIC (C. albicans [1]) [µg/mL] | MFC (C. albicans [2]) [µg/mL] | MIC (S. serevisiae) [µg/mL] | MIC (A. Nidulans) [µg/mL] |
| --- | --- | --- | --- | --- | --- | --- | --- | --- |
| 3,5-dichloro-2-hydroxybenzaldehyde-N-(3-chloro-2-pyrazinyl)hydrazine [(16)] | 8 | > 128 | 8 | 128 |  |  |  |  |
| COc1nccnc1N/N=C/c1cc(Cl)cc(Cl)c1O [(1), 3,5-dichloro-2-hydroxybenzaldehyde-N-(3-methoxy-2-pyrazinyl)hydrazone] |  |  |  |  | 1 (≈ 3.19 µM) | > 128 | 1 (≈ 3.19 µM) | 2 (≈ 6.39 µM) |
| COc1nccnc1NN=Cc1cc(Cl)ccc1O [(2)] |  |  |  |  | 1 (≈ 3.59 µM) | > 128 | 1 (≈ 3.59 µM) | 2 (≈ 7.18 µM) |
| COc1nccnc1NN=Cc1cccc(F)c1O [(3)] |  |  |  |  | 0.5 (≈ 1.91 µM) | > 128 | 1 (≈ 3.81 µM) | 2 (≈ 7.63 µM) |
| COc1nccnc1NN=Cc1ccccc1O [(4)] |  |  |  |  | 1 (≈ 4.09 µM) | > 128 | 1 (≈ 4.09 µM) | 2 (≈ 8.19 µM) |
| COc1nccnc1N/N=C/c1ccccn1 [(10)] |  |  |  |  | 2 (≈ 8.72 µM) | > 128 | 1 (≈ 4.36 µM) | 2 (≈ 8.72 µM) |
| CCOc1cccc(C=NNc2nccnc2OC)c1O [(11), 3-ethoxy-2-hydroxybenzaldehyde-N-(3-methoxy-2-pyrazinyl)hydrazone] |  |  |  |  | 2 (≈ 6.94 µM) | > 128 | 1 (≈ 3.47 µM) | 2 (≈ 6.94 µM) |
| COc1nccnc1NN=Cc1cccc([N+](=O)[O-])c1O [(12), 2-hydroxy-3-nitrobenzaldehyde-N-(3-methoxy-2-pyrazinyl)hydrazone] |  |  |  |  | 4 (≈ 13.8 µM) | > 128 | 4 (≈ 13.8 µM) | 8 (≈ 27.7 µM) |
| COc1ccc(C=NNc2nccnc2OC)c(O)c1 [(13), 2-hydroxy-4-methoxybenzaldehyde-N-(3-methoxy-2-pyrazinyl)hydrazone] |  |  |  |  | 1 (≈ 3.65 µM) | > 128 | 0.5 (≈ 1.82 µM) | 4 (≈ 14.6 µM) |
| COc1cc(Br)cc(C=NNc2nccnc2OC)c1O [(14), 5-bromo-2-hydroxy-3-methoxybenzaldehyde-N-(3-methoxy-2-pyrazinyl)hydrazone] |  |  |  |  | 0.5 (≈ 1.42 µM) | > 128 | 0.5 (≈ 1.42 µM) | 1 (≈ 2.83 µM) |
| COc1ccc(Br)c(C=NNc2nccnc2OC)c1O [(15), 6-bromo-2-hydroxy-3-methoxybenzaldehyde-N-(3-methoxy-2-pyrazinyl)hydrazone] |  |  |  |  | 1 (≈ 2.83 µM) | > 128 | 1 (≈ 2.83 µM) | 8 (≈ 22.7 µM) |
| Oc1c(Cl)cc(Cl)cc1/C=N/NC(=S)Nc1cc(C(F)(F)F)cc(C(F)(F)F)c1 [(35), N-[3,5bis(trifluoromethyl)phenyl]-2-[(E)-(3,5-dichloro-2-hydroxyphenyl)methylidene]-1-hydrazonecarbothioamide] |  |  |  |  | 2 (≈ 4.2 µM) | > 128 | 2 (≈ 4.2 µM) | 4 (≈ 8.4 µM) |
| Oc1cc(OCc2ccccc2)ccc1/C=N/NC(=S)Nc1cccc(C(F)(F)F)c1 [(42)] |  |  |  |  | 0.25 (≈ 0.561 µM) | > 128 | 0.25 (≈ 0.561 µM) | 0.25 (≈ 0.561 µM) |
| O=C(O)c1ccc(COc2ccc(/C=N/NC(=S)Nc3ccc(Cl)cc3)c(O)c2)cc1 [(47), N-[(4-chloro-phenyl)]-2-[(E)-(4-carboxyl-benzyloxy-2-hydroxyphenyl)methylidene]-1-hydrazonecarbothiamide] |  |  |  |  | 2 (≈ 4.39 µM) |  | 1 (≈ 2.19 µM) | 0.5 (≈ 1.1 µM) |
| CCN(CC)c1ccc(/C=N/NC(=S)Nc2cccc(C(F)(F)F)c2)c(O)c1 [(48)] |  |  |  |  | 1 (≈ 2.44 µM) | > 128 | 0.5 (≈ 1.22 µM) | 0.5 (≈ 1.22 µM) |
| Oc1cc(N2CCOCC2)ccc1/C=N/NC(=S)Nc1cccc(C(F)(F)F)c1 [(49)] |  |  |  |  | 2 (≈ 4.71 µM) | > 128 | 1 (≈ 2.36 µM) | 0.5 (≈ 1.18 µM) |
| Cc1cc(C)cc(NC(=S)N/N=C/c2ccc(OCc3ccccc3)cc2O)c1 [(50)] | 1 (≈ 2.47 µM) |  | 0.5 (≈ 1.23 µM) | 0.5 (≈ 1.23 µM) |  |  |  |  |
| O=S(=O)(c1ccc(NC(=S)N/N=C/c2ccc(OCc3ccccc3)cc2O)cc1)N1CCCCC1 [(51)] | 16 (≈ 30.5 µM) |  | 0.5 (≈ 0.953 µM) | 1 (≈ 1.91 µM) |  |  |  |  |
| N-[(3-trifluoromethyl)phenyl)]-2-[(E)-(4-allyl-phenyl)-benzyloxy-2-hydroxyphenyl)methylidene]-1-hydrazonecarbothiamide [(44)] | 8 |  | 2 | 2 |  |  |  |  |
